Test results as given in patent US5739351A, “Perhydroisoindole derivatives as substance P antagonists” (Rhone-Poulenc Rorer S.A., priority 1994, dated 1998).

What follows are compounds tested on increase in capillary permeability brought about by septide (a substance P agonist) (assay: inhibition of the increase in capillary permeability brought about by septide). Details: Cavia porcellus, po; guinea pig, capillary permeability increase induced by septide.
Type: in vivo
Description: The study of certain isoindole derivatives of general formula (I) in the technique of A. Saria et al., Arch.

| SMILES | ED50 |
| --- | --- |
| COc1ccccc1[C@H](C)C(=O)N1C[C@@H]2C[C@@H](CC#N)C[C@@](O)(c3ccccc3OC)[C@@H]2C1 [Example 1, (3aS,4S,6S,7aR)-6-Cyanomethyl-4-(2-methoxyphenyl)-2-[(S)-2-(2-methoxylphenyl)propionyl]perhydroisoindol-4-ol] | 0.004 mg/kg |
| COc1ccccc1CC(=O)N1C[C@@H]2C[C@@H](CC#N)C[C@@](O)(c3ccccc3OC)[C@@H]2C1 [Example 5, (3aS, 4S, 6S, 7aR)-6-Cyanomethyl-4-(2-methoxyphenyl)-2-[(2-methoxyphenyl)acetyl]perhydroisoindol-4-ol] | 0.32 mg/kg |
| COc1ccccc1CC(=O)N1C[C@@H]2C[C@@H](CNC#N)C[C@@](O)(c3ccccc3OC)[C@@H]2C1 (relative stereo) [Example 18, (3aRS,4RS,6SR,7aSR)-6-Cyanoaminomethyl-4-(2-methoxyphenyl)-2-[(2-methoxyphenyl)acetyl]perhydroisoindolol] | 1 mg/kg |
| COc1ccccc1[C@]1(O)C[C@H](CC#N)C[C@H]2CN(C(=O)Cc3ccc(Cl)c(Cl)c3)C[C@H]21 [Example 7, (3aS,4S,6S,7aR)-6-Cyanomethyl-2-[(3,4-dichlorophenyl)acetyl]-4-(2-methoxyphenyl)perhydroisoindol-4-ol] | 0.36 mg/kg |
| COc1ccccc1[C@]1(O)C[C@H](CC#N)C[C@H]2CN(C(=O)[C@@H](C)c3ccccc3O)C[C@H]21 [Example 4, (3aS,4S,6S,7aR)-6-Cyanomethyl-2-[(S)-2-(2-hydroxyphenyl)propionyl]-4-(2-methoxyphenyl)perhydroisoindol-4-ol] | 0.004 mg/kg |
| COc1ccccc1C(N)C(=O)N1C[C@@H]2C[C@@H](CC#N)C[C@@](O)(c3ccccc3OC)[C@@H]2C1 (stereo partly drawn) [Example 10] | 0.05 mg/kg |
| N#CC[C@@H]1C[C@@H]2CN(C(=O)Cc3ccccc3O)C[C@@H]2[C@@](O)(c2ccccc2F)C1 (racemic) [Example 14, (3aRS,4RS,6SR,7aSR)-6-Cyanomethyl-4-(2-fluorophenyl)-2-(2-hydroxyphenylacetyl)perhydroisoindol-4-ol] | 0.2 to 0.4 mg/kg |
| COc1ccccc1[C@@]1(O)C[C@@H](CC#N)C[C@@H]2CN(C(=O)Cc3ccccc3N3CCCC3)C[C@@H]21 (racemic) [Example 2, (3aRS,4RS,6RS,7aSR)-6-Cyanomethyl-4-(2-methoxyphenyl)-2-{[2-(1-pyrrolidinyl)phenyl]acetyl} perhydroisoindol-4-ol] | 1 mg/kg |
| COc1ccccc1[C@H](C)C(=O)N1C[C@@H]2C[C@@H](CC#N)C[C@@](O)(c3ccccc3F)[C@@H]2C1 [Example 13, (3aS,4S,6S,7aR)-6-Cyanomethyl-4-(2-fluorophenyl)-2-[(S)-2-(2-methoxyphenyl)propionyl]perhydroisoindol-4-ol] | 0.02 mg/kg |

These compounds were tested on formaldehyde pain (assay: formaldehyde pain test in guinea pigs). Details: Cavia porcellus, po, guinea pig.
Type: in vivo
Experimental: Moreover, certain products according to the invention were studied in the formaldehyde pain test in guinea pigs. The ED50 of the product is determined in this way.

| SMILES | ED50 |
| --- | --- |
| COc1ccccc1[C@H](C)C(=O)N1C[C@@H]2C[C@@H](CC#N)C[C@@](O)(c3ccccc3OC)[C@@H]2C1 [Example 1, (3aS,4S,6S,7aR)-6-Cyanomethyl-4-(2-methoxyphenyl)-2-[(S)-2-(2-methoxylphenyl)propionyl]perhydroisoindol-4-ol] | 1 mg/kg |
| COc1ccccc1CC(=O)N1C[C@@H]2C[C@@H](CC#N)C[C@@](O)(c3ccccc3OC)[C@@H]2C1 [Example 5, (3aS, 4S, 6S, 7aR)-6-Cyanomethyl-4-(2-methoxyphenyl)-2-[(2-methoxyphenyl)acetyl]perhydroisoindol-4-ol] | 3 to 30 mg/kg |
| COc1ccccc1[C@]1(O)C[C@H](CC#N)C[C@H]2CN(C(=O)[C@@H](N)c3ccccc3)C[C@H]21 [Example 9, (3aS,4S,6S,7aR)-2-[(S)-2-Amino-2-phenylacetyl]-6-cyanomethyl-4-(2-methoxyphenyl)perhydroisoindol-4-ol] | 3 to 30 mg/kg |
